In US20230089867A1, “CYCLIC PENTAMER COMPOUNDS AS PROPROTEIN CONVERTASE SUBTILISIN/KEXIN TYPE 9 (PCSK9) INHIBITORS FOR THE TREATMENT OF METABOLIC DISORDER” (Novartis AG, priority 2018, published 2023):
Like-named read-outs stand apart in the source and are kept apart here. Values belong to the molecule of their own block, whether it stands above or below them.

Assays:
[1] = amide bond, 18-membered ring, HATU/HOAt/2,6-lutidine
[2] = amide bond, 18-membered ring, HATU/HOAt/2,6-lutidine, DCM, 45.0 °C
[3] = target: human PCSK9 (Homo sapiens, UniProt Q8NBP7); assay: PCSK9 ligand binding TR-FRET assay (interference with binding of human PCSK9 to human LDLR); details: for Max % inhibition: PCSK9 FRET assay, efficacy (Amax), 100% = 1 uM unlabeled human PCSK9, 0% = DMSO; for IC50: TR-FRET, human PCSK9 Alexa Fluor 647 / human LDLR extracellular domain-Europium Kryptate, read-out: PCSK9 FRET Assay IC50
Sequence of human PCSK9 (Q8NBP7 153-692): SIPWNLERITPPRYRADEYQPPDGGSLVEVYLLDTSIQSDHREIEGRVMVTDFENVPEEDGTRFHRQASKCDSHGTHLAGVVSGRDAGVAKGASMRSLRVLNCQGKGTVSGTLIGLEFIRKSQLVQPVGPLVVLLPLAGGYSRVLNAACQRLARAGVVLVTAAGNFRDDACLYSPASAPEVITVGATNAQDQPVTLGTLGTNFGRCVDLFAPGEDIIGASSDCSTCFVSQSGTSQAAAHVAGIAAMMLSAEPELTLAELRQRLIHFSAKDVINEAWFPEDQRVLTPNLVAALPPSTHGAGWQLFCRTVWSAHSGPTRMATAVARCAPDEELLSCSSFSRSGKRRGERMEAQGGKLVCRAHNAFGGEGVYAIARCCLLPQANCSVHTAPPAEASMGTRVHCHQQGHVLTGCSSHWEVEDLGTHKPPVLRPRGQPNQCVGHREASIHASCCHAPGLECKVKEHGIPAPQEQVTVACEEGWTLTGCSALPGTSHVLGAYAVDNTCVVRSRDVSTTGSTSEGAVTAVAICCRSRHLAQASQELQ
Sequence of human PCSK9 (Q8NBP7 31-152 partner limits assumed): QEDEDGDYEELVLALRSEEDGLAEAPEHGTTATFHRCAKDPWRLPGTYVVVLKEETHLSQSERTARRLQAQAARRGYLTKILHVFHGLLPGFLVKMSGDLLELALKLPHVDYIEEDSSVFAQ
Procedure, shortened: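 Threefold compound dilutions were pre-incubated 30 min with PCSK9, after which 4 nM Europium Kryptate-tagged human LDLR ectodomain was added for a further 2 h.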

Molecule: (2S,5S,8S,13S,16R)-16-benzyl-8-(4-chlorobenzyl)-1-(4-ethyl-2-(4-(1-methyl-2-(pyrrolidin-1-ylmethyl)-1H-imidazol-5-yl)phenoxy)benzyl)-5-(methoxymethyl)-2,7,13,14-tetramethyl-1,4,7,11,14-pentaazacyclooctadecane-3,6,10,15,18-pentaone hydrochloride
- ring closure, yield after HPLC ([1]; DCM, 0.777 mM, 40.0 °C): 47%

- Max % inhibition [3]: 96.86%
- IC50 [3]: 11.5 nM
Molecule: C[C@H]1CNC(=O)C[C@H](Cc2ccc(Cl)cc2)N(C)C(=O)[C@H](CC(=O)OC(C)(C)C)NC(=O)[C@H](C)N(Cc2ccc(Cl)cc2Oc2ccc(-c3cnc(CN(C)C)n3C)cc2)C(=O)C[C@@H](Cc2ccccc2)C(=O)N1C [Compound 185, tert-butyl 2-((2S,5S,8S,13S,16R)-16-benzyl-1-(4-chloro-2-(4-(2-((dimethylamino)methyl)-1-methyl-1H-imidazol-5-yl)phenoxy)benzyl)-8-(4-chlorobenzyl)-2,7,13,14-tetramethyl-3,6,10,15,18-pentaoxo-1,4,7,11,14-pentaazacyclooctadecan-5-yl)acetate]
- ring closure, isolated yield ([2]; from (3S,6S,9S,14S,17R)-17-benzyl-6-(2-(tert-butoxy)-2-oxoethyl)-1-(4-chloro-2-(4-(2-((dimethyl amino)methyl)-1-methyl-1H-imidazol-5-yl)phenoxy)phenyl)-9-(4-chlorobenzyl)-3,8,14,15-tetramethyl-4,7,11,16-tetraoxo-2,5,8,12,15-pentaazanonadecan-19-oic acid, 1.85 mM): 46%

Molecule: (4S,7S,10S,14R,16aS,20aS)-14-Benzyl-11-(4-chloro-2-(4-(2-((dimethylamino)methyl)-1-methyl-1H-imidazol-5-yl)phenoxy)benzyl)-4-(4-chlorobenzyl)-7-(methoxymethyl)-5,16-dimethyl-10-(3-(3,3,4,4-tetrafluoropyrrolidin-1-yl)propyl)hexadecahydrobenzo[l][1,4,7,11,14]pentaazacyclooctadecine-2,6,9,12,15(3H)-pentaone
- ring closure, yield after HPLC ([1]; DCM, 0.524 mM, 39.0 °C): 17%

Molecule: (4S,7S,10S,16aS,20aS)-4-(4-chlorobenzyl)-11-(2-(difluoromethoxy)-6-(4-(2-((dimethylamino)methyl)-1-methyl-1H-imidazol-5-yl)phenoxy)benzyl)-7-(methoxymethyl)-5,10,16-trimethylhexadecahydro-benzo[l][1,4,7,11,14]pentaazacyclooctadecine-2,6,9,12,15(3H)-pentaone
- ring closure, yield after HPLC ([1]; DCM/NMP 10:1, 0.91 mM, 40.0 °C): 22%

- Max % inhibition [3]: 92.32%
- IC50 [3]: 21.1 nM
Molecule: CCOC[C@@H]1NC(=O)[C@H](C)N(Cc2ccc(Cl)cc2Oc2ccc(-c3cnc(CN(C)C)n3C)cc2)C(=O)C[C@@H](C)C(=O)N(C)[C@@H](C)CNC(=O)C[C@H](Cc2ccc(Cl)cc2)N(C)C1=O.O=CO [Compound 53, (2S,5S,8S,13S,16R)-1-(4-chloro-2-(4-(2-((dimethylamino)methyl)-1-methyl-1H-imidazol-5-yl)phenoxy)benzyl)-8-(4-chlorobenzyl)-5-(ethoxymethyl)-2,7,13,14,16-pentamethyl-1,4,7,11,14-pentaaza cyclooctadecane-3,6,10,15,18-pentaone formate]
- ring closure, isolated yield ([2]; from (3S,6S,9S,14S,17R)-1-(4-chloro-2-(4-(2-((dimethylamino)methyl)-1-methyl-1H-imidazol-5-yl)phenoxy)phenyl)-9-(4-chlorobenzyl)-6-(ethoxymethyl)-3,8,14,15,17-pentamethyl-4,7,11,16-tetraoxo-2,5,8,12,15-pentaazanonadecan-19-oic acid hydrochloride, 1.27 mM): 9%
